Columns and labels:
Assay in all cases: Test C greenhouse herbicide test, pre- and postemergence
Format in all cases: in vivo
[1] = test system: barnyardgrass (Echinochloa crus-galli)
Procedure, shortened: (§1)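 Preemergence: seeds sown in a loam soil–sand blend and sprayed with test chemicals in a non-phytotoxic solvent mixture containing surfactant. Postemergence: plants grown in peat-based medium and treated at 2 to 18 cm (1- to 4-leaf stage). After 13 to 15 d in a greenhouse, injury was visually rated 0–100 against controls.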

[2] = test system: blackgrass (Alopecurus myosuroides)
Procedure, shortened: as §1

corn (Zea mays) = test system: corn (Zea mays)
Procedure, shortened: as §1

[3] = test system: crabgrass, large (large crabgrass, Digitaria sanguinalis)
Procedure, shortened: as §1

[4] = test system: johnsongrass (Sorghum halepense)
Procedure, shortened: as §1

[5] = test system: lambsquarters (Chenopodium album)
Procedure, shortened: as §1

[6] = test system: morningglory (Ipomoea coccinea)
Procedure, shortened: as §1

[7] = test system: nutsedge, yellow (yellow nutsedge, Cyperus esculentus)
Procedure, shortened: as §1

[8] = test system: pigweed (Amaranthus retroflexus)
Procedure, shortened: as §1

[9] = test system: ragweed (common ragweed, Ambrosia elatior)
Procedure, shortened: as §1

[10] = test system: ryegrass, Italian (Italian ryegrass, Lolium multiflorum)
Procedure, shortened: as §1

soybean (Glycine max) = test system: soybean (Glycine max)
Procedure, shortened: as §1

[11] = test system: velvetleaf (Abutilon theophrasti)
Procedure, shortened: as §1

[12] = test system: waterhemp (common waterhemp, Amaranthus rudis)
Procedure, shortened: as §1

[13] = test system: wheat (winter wheat, Triticum aestivum)
Procedure, shortened: as §1

[14] = Postemergence, 31 g ai/ha, 0 to 100 scale (0 no effect, 100 complete control)
[15] = Postemergence, 125 g ai/ha, scale 0 to 100, 0 is no effect, 100 is complete control
[16] = Postemergence, 250 g ai/ha, scale 0 to 100, 0 no effect, 100 complete control, 13 to 15 d
[17] = Preemergence, 31 g ai/ha, scale 0 to 100, 0 is no effect, 100 is complete control
[18] = Preemergence, 62 g ai/ha, scale 0 to 100, 0 is no effect, 100 is complete control
[19] = Preemergence, 125 g ai/ha, scale 0 to 100, 0 is no effect, 100 is complete control
[20] = Preemergence, 250 g ai/ha, scale 0 to 100, 0 no effect, 100 complete control
[21] = postemergence, 62 g ai/ha, scale 0 to 100, 0 no effect, 100 complete control

SMILES: Cc1cc(C)c2ccccc2c1-c1c(O)c(C)nn(C)c1=O [Compound 21]
- Barnyardgrass plant response rating [1, 14]: 35
- Plant response rating, Barnyardgrass [1, 15]: 75
- Plant response rating, Barnyardgrass [1, 16]: 90
- Plant response rating, Barnyardgrass [1, 17]: 80
- Plant response rating, Barnyardgrass [1, 18]: 100
- Plant response rating, Barnyardgrass [1, 19]: 100
- Barnyardgrass plant response rating [1, 20]: 100
- Barnyardgrass plant response rating [1, 21]: 45
- Blackgrass plant response rating [2, 14]: 80
- Plant response rating, Blackgrass [2, 15]: 90
- Plant response rating, Blackgrass [2, 16]: 95
- Plant response rating, Blackgrass [2, 17]: 90
- Plant response rating, Blackgrass [2, 18]: 90
- Plant response rating, Blackgrass [2, 19]: 90
- Blackgrass plant response rating [2, 20]: 90
- Blackgrass plant response rating [2, 21]: 90
- Corn plant response rating (corn (Zea mays); [14]): 5
- Plant response rating, Corn (corn (Zea mays); [15]): 20
- Plant response rating, Corn (corn (Zea mays); [16]): 20
- Plant response rating, Corn (corn (Zea mays); [17]): 0
- Plant response rating, Corn (corn (Zea mays); [18]): 15
- Plant response rating, Corn (corn (Zea mays); [19]): 40
- Corn plant response rating (corn (Zea mays); [20]): 65
- Corn plant response rating (corn (Zea mays); [21]): 65
- Crabgrass, Large plant response rating [3, 14]: 30
- Plant response rating, Crabgrass, Large [3, 15]: 40
- Plant response rating, Crabgrass, Large [3, 16]: 55
- Plant response rating, Crabgrass, Large [3, 17]: 35
- Plant response rating, Crabgrass, Large [3, 18]: 85
- Plant response rating, Crabgrass, Large [3, 19]: 85
- Crabgrass, Large plant response rating [3, 20]: 100
- Crabgrass, Large plant response rating [3, 21]: 35
- Johnsongrass plant response rating [4, 14]: 10
- Plant response rating, Johnsongrass [4, 15]: 20
- Plant response rating, Johnsongrass [4, 16]: 35
- Plant response rating, Johnsongrass [4, 17]: 10
- Plant response rating, Johnsongrass [4, 18]: 10
- Plant response rating, Johnsongrass [4, 19]: 35
- Johnsongrass plant response rating [4, 20]: 50
- Johnsongrass plant response rating [4, 21]: 20
- Lambsquarters plant response rating [5, 14]: 85
- Plant response rating, Lambsquarters [5, 15]: 95
- Plant response rating, Lambsquarters [5, 16]: 98
- Plant response rating, Lambsquarters [5, 17]: 90
- Plant response rating, Lambsquarters [5, 18]: 98
- Plant response rating, Lambsquarters [5, 19]: 98
- Lambsquarters plant response rating [5, 20]: 100
- Lambsquarters plant response rating [5, 21]: 90
- Morningglory plant response rating [6, 14]: 85
- Plant response rating, Morningglory [6, 15]: 100
- Plant response rating, Morningglory [6, 16]: 100
- Plant response rating, Morningglory [6, 17]: 95
- Plant response rating, Morningglory [6, 18]: 98
- Plant response rating, Morningglory [6, 19]: 100
- Morningglory plant response rating [6, 20]: 100
- Morningglory plant response rating [6, 21]: 100
- Nutsedge, Yellow plant response rating [7, 14]: 85
- Plant response rating, Nutsedge, Yellow [7, 15]: 90
- Plant response rating, Nutsedge, Yellow [7, 16]: 90
- Plant response rating, Nutsedge, Yellow [7, 17]: 75
- Plant response rating, Nutsedge, Yellow [7, 18]: 85
- Plant response rating, Nutsedge, Yellow [7, 19]: 85
- Nutsedge, Yellow plant response rating [7, 20]: 85
- Nutsedge, Yellow plant response rating [7, 21]: 90
- Pigweed plant response rating [8, 14]: 70
- Plant response rating, Pigweed [8, 15]: 95
- Plant response rating, Pigweed [8, 16]: 98
- Plant response rating, Pigweed [8, 17]: 100
- Plant response rating, Pigweed [8, 18]: 100
- Plant response rating, Pigweed [8, 19]: 100
- Pigweed plant response rating [8, 20]: 100
- Pigweed plant response rating [8, 21]: 95
- Ragweed plant response rating [9, 14]: 85
- Plant response rating, Ragweed [9, 15]: 90
- Plant response rating, Ragweed [9, 16]: 95
- Plant response rating, Ragweed [9, 17]: 95
- Plant response rating, Ragweed [9, 18]: 100
- Plant response rating, Ragweed [9, 19]: 100
- Ragweed plant response rating [9, 20]: 100
- Ragweed plant response rating [9, 21]: 90
- Ryegrass, Italian plant response rating [10, 14]: 90
- Plant response rating, Ryegrass, Italian [10, 15]: 95
- Plant response rating, Ryegrass, Italian [10, 16]: 95
- Plant response rating, Ryegrass, Italian [10, 17]: 90
- Plant response rating, Ryegrass, Italian [10, 18]: 90
- Plant response rating, Ryegrass, Italian [10, 19]: 90
- Ryegrass, Italian plant response rating [10, 20]: 95
- Ryegrass, Italian plant response rating [10, 21]: 95
- Soybean plant response rating (soybean (Glycine max); [14]): 0
- Plant response rating, Soybean (soybean (Glycine max); [15]): 10
- Plant response rating, Soybean (soybean (Glycine max); [16]): 20
- Plant response rating, Soybean (soybean (Glycine max); [18]): 0
- Plant response rating, Soybean (soybean (Glycine max); [19]): 0
- Soybean plant response rating (soybean (Glycine max); [20]): 20
- Soybean plant response rating (soybean (Glycine max); [21]): 0
- Velvetleaf plant response rating [11, 14]: 75
- Plant response rating, Velvetleaf [11, 15]: 85
- Plant response rating, Velvetleaf [11, 16]: 90
- Plant response rating, Velvetleaf [11, 18]: 90
- Plant response rating, Velvetleaf [11, 19]: 98
- Velvetleaf plant response rating [11, 20]: 98
- Velvetleaf plant response rating [11, 21]: 85
- Waterhemp plant response rating [12, 14]: 40
- Plant response rating, Waterhemp [12, 15]: 85
- Plant response rating, Waterhemp [12, 16]: 80
- Plant response rating, Waterhemp [12, 18]: 95
- Plant response rating, Waterhemp [12, 19]: 100
- Waterhemp plant response rating [12, 20]: 100
- Waterhemp plant response rating [12, 21]: 75
- Wheat plant response rating [13, 14]: 0
- Plant response rating, Wheat [13, 15]: 35
- Plant response rating, Wheat [13, 16]: 35
- Plant response rating, Wheat [13, 18]: 5
- Plant response rating, Wheat [13, 19]: 30
- Wheat plant response rating [13, 20]: 40
- Wheat plant response rating [13, 21]: 5

Source: US10597388B2, “Pyridazinone herbicides” (FMC CORPORATION, priority 2014, dated 2020)
